Structures are written as SMILES. Numbers after ± are expanded uncertainties.

Drawing on the NIST ThermoML archive (doi:10.1016/j.tca.2012.05.004), this text covers mass density for six compounds.

For this data set the following is noted: 101.33 kPa, Liquid, Vibrating tube method.

A word on the mass density: it is mass per unit of volume. Turning to `CCC(C)O` (stereo unspecified) [butan-2-ol], the mass density is given as 810.879 ± 0.3 kg/m3 (288.15 K); 806.837 ± 0.31 kg/m3 (293.15 K); 802.716 ± 0.31 kg/m3 (298.15 K); 798.513 ± 0.31 kg/m3 (303.15 K); 794.218 ± 0.31 kg/m3 (308.15 K); 789.832 ± 0.31 kg/m3 (313.15 K).
Consider `CCCC(C)O` (stereo unspecified) [pentan-2-ol], for which the mass density by setting is: (288.15 K) 813.272 ± 0.3 kg/m3; (293.15 K) 809.305 ± 0.31 kg/m3; (298.15 K) 805.27 ± 0.31 kg/m3; (303.15 K) 801.157 ± 0.31 kg/m3; (308.15 K) 796.97 ± 0.31 kg/m3; (313.15 K) 792.702 ± 0.31 kg/m3.
As to `CCCCC(C)O` (stereo unspecified) [2-hexanol], the mass density by setting is: (288.15 K) 818.064 ± 0.3 kg/m3; (293.15 K) 814.174 ± 0.3 kg/m3; (298.15 K) 810.227 ± 0.31 kg/m3; (303.15 K) 806.225 ± 0.31 kg/m3; (308.15 K) 802.16 ± 0.31 kg/m3; (313.15 K) 798.04 ± 0.31 kg/m3.
On to `CCCCCCC(C)O` (stereo unspecified) [2-octanol], for which the mass density (288.15 K) is 824.028 ± 0.3 kg/m3; the mass density (293.15 K) is 820.313 ± 0.3 kg/m3; the mass density (298.15 K) amounted to 816.559 ± 0.3 kg/m3; the mass density (303.15 K) stood at 812.768 ± 0.3 kg/m3; the mass density (308.15 K) was 808.94 ± 0.31 kg/m3; the mass density (313.15 K) amounted to 805.079 ± 0.31 kg/m3.
Take `CC(C)O` [propan-2-ol]: the mass density is, setting by setting: (288.15 K) 789.337 ± 0.31 kg/m3; (293.15 K) 785.198 ± 0.31 kg/m3; (298.15 K) 780.987 ± 0.31 kg/m3; (303.15 K) 776.718 ± 0.31 kg/m3; (308.15 K) 772.371 ± 0.31 kg/m3; (313.15 K) 767.935 ± 0.31 kg/m3.
Consider `ClCCCl` [1,2-dichloroethane], for which the mass density runs as follows: (288.15 K) 1259.99 ± 0.58 kg/m3; (293.15 K) 1252.77 ± 0.57 kg/m3; (298.15 K) 1245.49 ± 0.56 kg/m3; (303.15 K) 1238.18 ± 0.56 kg/m3; (308.15 K) 1230.84 ± 0.55 kg/m3; (313.15 K) 1223.46 ± 0.54 kg/m3.
